These results are taken from ChEMBL document CHEMBL1153038, “Eusynstyelamides A, B, and C, nNOS inhibitors, from the ascidian Eusynstyela latericius” (J Nat Prod, 2009).

The test system of one experiment is HCT-116. Description: Cytotoxicity against human HCT116 cells. In kind it is functional, cell-based.
Another experiment addresses Nitric oxide synthase 1 (Rattus norvegicus, UniProt P29476). Description: Inhibition of rat cerebella nNOS synthase assessed as [3H]arginine to [3H]citrulline conversion by microbeta scintillation counting.
In a further experiment the test system is NCI-H460. Description: Cytotoxicity against human H460 cells upto […] by SRB assay. In kind it is functional, cell-based. On the technique in general: The SRB assay estimates cell density from bound dye.
For another experiment, the system named is MCF7. Description: Cytotoxicity against human MCF7 cells upto […] by SRB assay. In kind it is functional, cell-based.
Another experiment concerns SF-268. Description: Cytotoxicity against human SF268 cells upto […] by SRB assay. In kind it is functional, cell-based.
The next experiment concerns Staphylococcus aureus. Briefly: Antibacterial activity against Staphylococcus aureus after 24 hrs by microtiter dilution assay. It is filed as functional, organism-based.

Chain of Nitric oxide synthase 1 (P29476 whole entry): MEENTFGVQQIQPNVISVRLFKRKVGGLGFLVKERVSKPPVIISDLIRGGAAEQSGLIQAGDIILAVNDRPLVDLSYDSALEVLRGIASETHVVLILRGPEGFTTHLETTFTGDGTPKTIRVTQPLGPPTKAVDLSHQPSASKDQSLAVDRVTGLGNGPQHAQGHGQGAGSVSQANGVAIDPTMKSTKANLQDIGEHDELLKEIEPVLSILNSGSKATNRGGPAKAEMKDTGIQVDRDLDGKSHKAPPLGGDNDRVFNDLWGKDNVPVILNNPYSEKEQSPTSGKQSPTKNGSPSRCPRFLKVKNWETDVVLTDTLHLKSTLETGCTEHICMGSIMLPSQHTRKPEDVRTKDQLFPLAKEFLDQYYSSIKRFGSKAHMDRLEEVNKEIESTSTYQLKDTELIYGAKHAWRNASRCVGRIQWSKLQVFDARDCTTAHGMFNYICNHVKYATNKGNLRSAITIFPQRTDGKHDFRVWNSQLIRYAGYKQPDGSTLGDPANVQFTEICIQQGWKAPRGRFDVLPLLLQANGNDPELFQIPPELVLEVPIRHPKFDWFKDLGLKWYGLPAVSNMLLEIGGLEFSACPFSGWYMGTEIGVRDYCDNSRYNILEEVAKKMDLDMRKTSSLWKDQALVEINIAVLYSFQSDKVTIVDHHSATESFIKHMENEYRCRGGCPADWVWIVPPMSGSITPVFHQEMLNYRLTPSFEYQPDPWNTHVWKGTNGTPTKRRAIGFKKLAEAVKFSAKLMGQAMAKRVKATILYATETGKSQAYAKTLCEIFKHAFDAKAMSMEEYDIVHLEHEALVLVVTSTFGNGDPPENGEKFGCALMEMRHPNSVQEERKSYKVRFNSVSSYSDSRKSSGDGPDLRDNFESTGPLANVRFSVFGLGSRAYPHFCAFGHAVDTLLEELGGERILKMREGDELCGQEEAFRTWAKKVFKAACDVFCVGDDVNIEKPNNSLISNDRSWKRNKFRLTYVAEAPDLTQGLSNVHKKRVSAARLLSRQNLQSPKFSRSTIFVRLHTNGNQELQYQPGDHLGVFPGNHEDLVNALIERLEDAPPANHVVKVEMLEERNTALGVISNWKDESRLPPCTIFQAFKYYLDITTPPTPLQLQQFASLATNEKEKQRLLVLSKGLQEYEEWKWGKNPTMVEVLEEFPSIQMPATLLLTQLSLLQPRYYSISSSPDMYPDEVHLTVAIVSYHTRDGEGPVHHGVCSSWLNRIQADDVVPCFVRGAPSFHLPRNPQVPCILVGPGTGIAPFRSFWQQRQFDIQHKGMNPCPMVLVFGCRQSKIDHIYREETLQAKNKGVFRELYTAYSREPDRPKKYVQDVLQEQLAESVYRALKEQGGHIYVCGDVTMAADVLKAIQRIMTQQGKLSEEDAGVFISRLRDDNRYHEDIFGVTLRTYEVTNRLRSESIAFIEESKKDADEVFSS

For `CC(=O)NCCc1cc(O)c2nccc3c2c1Nc1ccccc1-3` [STYELSAMINE B], it took 1600 nM to reach half-maximal inhibition in the experiment on HCT-116 (IC50).
Still for that read-out and setting: to `NCC(O)c1cc(O)c2nccc3c2c1Nc1ccccc1-3` (centres undefined) [STYELSAMINE A] belongs 1600 nM.
`N=C(N)NCCCCNC(=O)C(O)(O)C(c1c[nH]c2cc(Br)ccc12)C(O)(Cc1c[nH]c2cc(Br)ccc12)C(=O)NCCCCNC(=N)N` (centres undefined) [EUSYNSTYELAMIDE] yielded an IC50 with HCT-116 of 100000 nM.
As to `N=C(N)NCCCCNC(=O)[C@@]1(O)[C@H](c2c[nH]c3cc(Br)ccc23)[C@@](O)(Cc2c[nH]c3cc(Br)ccc23)C(=O)N1CCCCNC(=N)N`, the IC50 was determined as 4.3 µM at Nitric oxide synthase 1 and 6.5 µM with Staphylococcus aureus. The Activity result with NCI-H460, in the experiment with MCF7 and in the experiment with SF-268 was “Not toxic” throughout.
Turning to `N=C(N)NCCCCNC(=O)[C@@]1(O)[C@H](c2c[nH]c3cc(Br)ccc23)[C@](O)(Cc2c[nH]c3cc(Br)ccc23)C(=O)N1CCCCNC(=N)N`, the half-maximal inhibitory concentration (IC50) at Nitric oxide synthase 1 worked out at 5.8 µM. Moreover, the Activity result in the experiment with NCI-H460, in the experiment on MCF7 and with SF-268 was “Not toxic” each time.
As to `N=C(N)NCCCCNC(=O)[C@]1(O)[C@H](c2c[nH]c3cc(Br)ccc23)[C@@](O)(Cc2c[nH]c3cc(Br)ccc23)C(=O)N1CCCCNC(=N)N`, the results for the 50% inhibitory concentration (IC50) at Nitric oxide synthase 1 and in the experiment on Staphylococcus aureus were 41.7 µM and 19 µM, respectively. Moreover, the Activity entry with NCI-H460, with MCF7 and in the experiment with SF-268 was “Not toxic” in each case.
`NCCc1cc(O)c2nccc3c2c1Nc1ccccc1-3` [STYELSAMINE D] gave a half-inhibitory concentration (IC50) in the experiment on HCT-116 of 1600 nM.
On the same count and under the same terms, under `O=Cc1cc(O)c2nccc3c2c1Nc1ccccc1-3` [STYELSAMINE C] stands 1600 nM.

As usually defined, the IC50 is the midpoint of a concentration-inhibition curve.
